These results are taken from patent US20110178182A1, “ENRICHED NANOSTRUCTURE COMPOSITION” (DO-COOP TECHNOLOGIES LTD., priority 2007, published 2011).

Molecules are shown by their SMILES.

Series [1] in a line: Solvent capability: Taxol (Example 28). Conditions: 0.5 mM in DMSO or in the composition with 17% EtOH. Type of series: physicochemical. How it is done:
0.5 mM Taxol solution can be prepared (0.0017 gr in 4 ml) in either DMSO or the enriched nanostructure composition of the present embodiments with 17% EtOH. Absorbance can be detected with a spectrophotometer.

Series [2] can be described thus: Solubilizing Daunorubicine. The note with it: 2 mg/ml in GENC or RO water. Type of series: physicochemical. The procedure:
Required concentration: 2 mg/ml

In the case of `CC(=O)O[C@H]1C(=O)[C@@]2(C)[C@H]([C@H](OC(=O)c3ccccc3)[C@]3(O)C[C@H](OC(=O)[C@H](O)[C@@H](NC(=O)c4ccccc4)c4ccccc4)C(C)=C1C3(C)C)[C@]1(OC(C)=O)CO[C@@H]1C[C@@H]2O` [Taxol, Paclitaxel], in series [1], the dissolution result was “dissolved both in DMSO and the enriched nanostructure composition”.

Regarding `COc1cccc2c1C(=O)c1c(O)c3c(c(O)c1C2=O)C[C@@](O)(C(C)=O)C[C@@H]3O[C@H]1C[C@H](N)[C@H](O)[C@H](C)O1` [Daunorubicine], in series [2], the dissolution result was “dissolved easily both in the enriched nanostructure composition of the present embodiments and in RO water”.
